According to US8865745B2, “Pyrazolone derivatives as PDE4 inhibitors” (Takeda GmbH, priority 2007, dated 2014):

Key:
PDE4B1 = PDE4B1 (Homo sapiens (Human), UniProt Q07343); test: Inhibition of PDE4 activity, [3H]cAMP SPA enzyme assay with recombinant PDE4B1; assay type: biochemical; conditions: recombinant PDE4B1 expressed in SF21 cells, 0.5 μM cAMP, 37° C.
Procedure: Method for Measuring Inhibition of PDE4 Activity
The PDE4B1 (GB no. L20966) was a gift of Prof. M. Conti (Stanford University, USA). It was amplified from the original plasmid (pCMV5) via PCR with primers Rb18 (5′-[…]-3′) and Rb10 (5′-[…]-3′) and cloned into the pCR-Bac vector (Invitrogen, Groningen, NL).
The recombinant baculovirus was prepared by means of homologous recombination in SF9 insect cells. The expression plasmids were cotransfected with Baculo-Gold DNA (Pharmingen, Hamburg) using a standard protocol (Pharmingen, Hamburg). Wt virus-free recombinant virus supernatants were selected using plaque assay methods. After that, high-titre virus supernatants were prepared by amplifying 3 times. PDE4B1 was expressed in SF21 cells by infecting 2×10^6 cells/ml with an MOI (multiplicity of infection) between 1 and 10 in the serum-free medium Insect Express Sf9-S2 (PAA, Pasching, Austria). The cells were cultured at 28° C. for 48-72 hours, after which they were pelleted for 5-10 min at 1000×g and 4° C.
The SF21 insect cells were resuspended, at a concentration of approx. 10^7 cells/ml, in ice-cold (4° C.) homogenization buffer (20 mM Tris, pH 8.2, containing the following additions: 140 mM NaCl, 3.8 mM KCl, 1 mM EGTA, 1 mM MgCl2, 10 mM β-mercaptoethanol, 2 mM benzamidine, 0.4 mM Pefablock, […] leupeptin, 10 μM pepstatin A, 5 μM trypsin inhibitor) and disrupted by ultrasonication. The homogenate was then centrifuged for 10 min at 1000×g and the supernatant was stored at −80° C. until subsequent use (see below). The protein content was determined by the Bradford method (BioRad, Munich) using BSA as the standard.
PDE4B1 activity was inhibited by the compounds according to the invention in a modified SPA (scintillation proximity assay) test, supplied by Amersham Biosciences (see procedural instructions “phosphodiesterase [3H]cAMP SPA enzyme assay, code TRKQ 7090”), carried out in 96-well microtitre plates (MTP's). The test volume is 100 μl and contains 20 mM Tris buffer (pH 7.4), 0.1 mg/ml of BSA, 5 mM Mg^2+, 0.5 μM cAMP (including about 50,000 cpm of [3H]cAMP), 1 μl of the respective substance dilution in DMSO and sufficient recombinant PDE (1000×g supernatant, see above) to ensure that 10-20% of the cAMP is converted under the said experimental conditions. […] After a preincubation of 5 min at 37° C., the reaction is started by adding the substrate (cAMP) and the assays are incubated for a further 15 min; after that, they are stopped by adding SPA beads (50 μl). In accordance with the manufacturer's instructions, the SPA beads had previously been resuspended in water, but were then diluted 1:3 (v/v) in water; the diluted solution also contains 3 mM IBMX to ensure a complete PDE activity stop. After the beads have been sedimented (>30 min), the MTP's are analyzed in commercially available luminescence detection devices. The corresponding IC50 values of the compounds for the inhibition of […] activity are determined from the concentration-effect curves by means of non-linear regression.
The inhibitory values determined for the compounds according to the invention follow from the following Table 1, in which the numbers of the compounds correspond to the numbers of the examples.

Sequence of PDE4B1 (Q07343 whole entry): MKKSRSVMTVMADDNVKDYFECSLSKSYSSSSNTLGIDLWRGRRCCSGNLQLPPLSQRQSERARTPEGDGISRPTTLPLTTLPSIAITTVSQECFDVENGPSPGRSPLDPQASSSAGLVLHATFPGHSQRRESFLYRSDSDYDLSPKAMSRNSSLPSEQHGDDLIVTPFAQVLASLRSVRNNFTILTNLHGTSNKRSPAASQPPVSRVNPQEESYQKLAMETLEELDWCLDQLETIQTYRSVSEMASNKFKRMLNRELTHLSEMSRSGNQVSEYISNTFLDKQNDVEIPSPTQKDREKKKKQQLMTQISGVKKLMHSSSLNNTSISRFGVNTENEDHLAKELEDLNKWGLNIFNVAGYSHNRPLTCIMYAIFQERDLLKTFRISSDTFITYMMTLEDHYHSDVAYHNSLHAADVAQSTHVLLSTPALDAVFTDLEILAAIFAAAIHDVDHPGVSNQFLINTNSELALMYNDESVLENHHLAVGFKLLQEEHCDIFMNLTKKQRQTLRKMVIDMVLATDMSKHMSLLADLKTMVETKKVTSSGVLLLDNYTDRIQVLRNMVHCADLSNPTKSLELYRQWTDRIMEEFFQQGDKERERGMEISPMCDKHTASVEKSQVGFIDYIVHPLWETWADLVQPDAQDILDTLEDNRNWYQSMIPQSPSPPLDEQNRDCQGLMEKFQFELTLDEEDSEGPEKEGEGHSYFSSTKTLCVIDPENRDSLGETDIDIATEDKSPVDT

melting point [°C]	PDE4 Inhibition [measured as −logIC50 (mol/l)] (PDE4B1)	SMILES
125 to 131	7.48 −logIC50 (mol/l)	COc1ccc(C2=NN(C3CCN(C(=O)CN4CCCC4=O)CC3)C(=O)C2(C)C)cc1OC [Compound 16, 5-(3,4-dimethoxyphenyl)-4,4-dimethyl-2-{1-[(2-oxopyrrolidin-1-yl)acetyl]piperidin-4-yl}-2,4-dihydro-3H-pyrazol-3-one]
	8.08 −logIC50 (mol/l)	CCCC1(C)C(=O)N(C2CCN(C(=O)CN3C(=O)CCC3=O)CC2)N=C1c1ccc(OC)c(OC)c1 (centres unmarked) [Compound 11, 1-(2-{4-[3-(3,4-dimethoxyphenyl)-4-methyl-5-oxo-4-propyl-4,5-dihydro-1H-pyrazol-1-yl]piperidin-1-yl}-2-oxoethyl)pyrrolidine-2,5-dione]
	7.46 −logIC50 (mol/l)	CCC1(C)C(=O)N(C2CCN(C(=O)CN3C(=O)CCC3=O)CC2)N=C1c1ccc(OC)c(OC)c1 (centres unmarked) [Compound 12, 1-(2-{4-[3-(3,4-dimethoxyphenyl)-4-ethyl-4-methyl-5-oxo-4,5-dihydro-1H-pyrazol-1-yl]piperidin-1-yl}-2-oxoethyl)pyrrolidine-2,5-dione]
	9.06 −logIC50 (mol/l)	COc1ccc(C2=NN(C3CCN(C(=O)CN4C(=O)c5ccccc5C4=O)CC3)C(=O)C2(C)C)cc1OC [Compound 14, 2-(2-{4-[3-(3,4-dimethoxyphenyl)-4,4-dimethyl-5-oxo-4,5-dihydro-1H-pyrazol-1-yl]piperidin-1-yl}-2-oxoethyl)-1H-isoindole-1,3(2H)-dione]
146 to 148	8.42 −logIC50 (mol/l)	COc1ccc(C2=NN(C3CCN(C(=O)CN4C(=O)CS(=O)(=O)CC4=O)CC3)C(=O)C2(C)C)cc1OC [Compound 18, 4-(2-{-4-[3-(3,4-dimethoxyphenyl)-4,4-dimethyl-5-oxo-4,5-dihydro-1H-pyrazol-1-yl]piperidin-1-yl}-2-oxoethyl)thiomorpholine-3,5-dione 1,1-dioxide]
	7.74 −logIC50 (mol/l)	CC1(C)C(=O)N(C2CCN(C(=O)CN3C(=O)CCC3=O)CC2)N=C1c1ccc(OC(F)F)c(OCC2CC2)c1 [Compound 4, 1-[2-(4-{3-[3-(cyclopropylmethoxy)-4-(difluoromethoxy)phenyl]-4,4-dimethyl-5-oxo-4,5-dihydro-1H-pyrazol-1-yl}piperidin-1-yl)-2-oxoethyl]pyrrolidine-2,5-dione]

Continued, compound first:

SMILES	melting point [°C]	PDE4 Inhibition [measured as −logIC50 (mol/l)] (PDE4B1)
COc1ccc(C2=NN(C3CCN(C(=O)CN4C(=O)Cc5ccccc54)CC3)C(=O)C2(C)C)cc1OC [Compound 20, 1-(2-{4-[3-(3,4-Dimethoxy-phenyl)-4,4-dimethyl-5-oxo-4,5-dihydro-pyrazol-1-yl]-piperidin-1-yl}-2-oxo-ethyl)-1,3-dihydro-2H-indol-2-one]	178	8.24 −logIC50 (mol/l)
COc1ccc(C2=NN(C3CCN(C(=O)CN4C(=O)CCC4=O)CC3)C(=O)C2(C)C)cc1OCC1CC1 [Compound 5, 1-[2-(4-{3-[3-(cyclopropylmethoxy)-4-methoxyphenyl]-4,4-dimethyl-5-oxo-4,5-dihydro-1H-pyrazol-1-yl}piperidin-1-yl)-2-oxoethyl]pyrrolidine-2,5-dione]	129 to 131	7.15 −logIC50 (mol/l)
COc1ccc(C2=NN(C3CCN(C(=O)CN4C(=O)CSCC4=O)CC3)C(=O)C2(C)C)cc1OC [Compound 17, 4-(2-{4-[3-(3,4-dimethoxyphenyl)-4,4-dimethyl-5-oxo-4,5-dihydro-1′-1-pyrazol-1-yl]piperidin-1-yl}-2-oxoethyl)thiomorpholine-3,5-dione]		8.27 −logIC50 (mol/l)
COc1ccc(C2=NN(C3CCN(C(=O)CN4C(=O)CCC4=O)CC3)C(=O)C2(C)C)c2c1OC(C)(C)C2 [Compound 8]		8.53 −logIC50 (mol/l)
COc1ccc(C2=NN(C3CCN(C(=O)CN4C(=O)CCC4=O)CC3)C(=O)C23CCCC3)cc1OC [Compound 13, 1-(2-{4-[4-(3,4-dimethoxyphenyl)-1-oxo-2,3-diazaspiro[4.4]non-3-en-2-yl]piperidin-1-yl}-2-oxoethyl)pyrrolidine-2,5-dione]		7.79 −logIC50 (mol/l)
COc1ccc(C2=NN(C3CCN(C(=O)CN4C(=O)CCC4=O)CC3)C(=O)C2(C)C)cc1OCC(F)(F)F [Compound 6, 1-[2-(4-{3-[4-methoxy-3-(2,2,2-trifluoroethoxy)phenyl]-4,4-dimethyl-5-oxo-4,5-dihydro-1H-pyrazol-1-yl}piperidin-1-yl)-2-oxoethyl]pyrrolidine-2,5-dione]		6.84 −logIC50 (mol/l)
CCOc1ccc(C2=NN(C3CCN(C(=O)CN4C(=O)CCC4=O)CC3)C(=O)C2(C)C)cc1OCC [Compound 3, 1-(2-{-4-[3-(3,4-diethoxyphenyl)-4,4-dimethyl-5-oxo-4,5-dihydro-1H-pyrazol-1-yl]piperidin-1-yl}-2-oxoethyl)pyrrolidine-2,5-dione]		7.75 −logIC50 (mol/l)
COc1ccc(C2=NN(C3CCN(C(=O)CN4C(=O)CCCC4=O)CC3)C(=O)C2(C)C)cc1OC [Compound 15, 1-(2-{4-[3-(3,4-Dimethoxy-phenyl)-4,4-dimethyl-5-oxo-4,5-dihydro-pyrazol-1-yl]-piperidin-1-yl}-2-oxo-ethyl)-piperidine-2,6-dione]		7.90 −logIC50 (mol/l)
CCOc1cc(C2=NN(C3CCN(C(=O)CN4C(=O)CCC4=O)CC3)C(=O)C2(C)C)ccc1OC [Compound 7, 1-(2-{4-[3-(3-ethoxy-4-methoxyphenyl)-4,4-dimethyl-5-oxo-4,5-dihydro-1H-pyrazol-1-yl]piperidin-1-yl}-2-oxoethyl)pyrrolidine-2,5-dione]		7.65 −logIC50 (mol/l)
COc1ccc(C2=NN(C3CCN(C(=O)CN4C(=O)COCC4=O)CC3)C(=O)C2(C)C)cc1OC [Compound 1, 4-(2-{4-[3-(3,4-dimethoxyphenyl)-4,4-dimethyl-5-oxo-4,5-dihydro-1H-pyrazol-1-yl]piperidin-1-yl}-2-oxoethyl)morpholine-3,5-dione]	156 to 157	8.29 −logIC50 (mol/l)
COc1ccc(C2=NN(C3CCN(C(=O)CN4C(=O)CCC4=O)CC3)C(=O)C2(C)C)c2c1OC1(CCCC1)C2 [Compound 9]		8.23 −logIC50 (mol/l)
COc1ccc(C2=NN(C3CCN(C(=O)CCN4C(=O)CCC4=O)CC3)C(=O)C2(C)C)cc1OC [Compound 19, 1-(3-{4-[3-(3,4-Dimethoxy-phenyl)-4,4-dimethyl-5-oxo-4,5-dihydro-pyrazol-1-yl]-piperidin-1-yl}-3-oxo-propyl)-pyrrolidine-2,5-dione]	207 to 209	7.48 −logIC50 (mol/l)
COc1ccc(C2=NN(C3CCN(C(=O)CN4C(=O)CCC4=O)CC3)C(=O)C2(C)C)cc1OC [Compound 2, 1-(2-{4-[3-(3,4-dimethoxyphenyl)-4,4-dimethyl-5-oxo-4,5-dihydro-1H-pyrazol-1-yl]piperidin-1-yl}-2-oxoethyl)pyrrolidine-2,5-dione]	218 to 220	8.09 −logIC50 (mol/l)
